From ChEMBL document CHEMBL5674860, “Optimized Dual-Glo Assay to identify co-culture-induced drug vulnerabilities in 3D CRC models” (2024)
Square brackets hold non-standard residues; d marks the D form. Peptide text beside a SMILES is read from it. Arg(Me) = CNC(=N)NCCC[C@H](N)C(=O)O; d3Pal = N[C@H](Cc1cccnc1)C(=O)O; d4Pal = N[C@H](Cc1ccncc1)C(=O)O; azaGly = NNC(=O)O

What was measured:
Assay type in all cases: functional, Homo sapiens
Set-up in all cases: dose or concentration left out as unconfirmed
[1] = test system: Colon cancer organoid; test: Optimized Dual-Glo assay to identify co-culture induced drug vulnerabilities using donated chemical probes and chemogenomics kinase set in O14 CRC organoid and F14 CAF mono and co-culture. […] Cell viability is reported both mono and co-culture models.
[2] = test system: Colon cancer organoid; test: Optimized Dual-Glo assay to identify co-culture induced drug vulnerabilities using donated chemical probes and chemogenomics kinase set in O20 CRC organoid and F20 CAF mono and co-culture. […] Cell viability is reported both mono and co-culture models.
[3] = test system: Colon cancer organoid; test: Optimized Dual-Glo assay to identify co-culture induced drug vulnerabilities using donated chemical probes and chemogenomics kinase set in O06 CRC organoid and F06 CAF mono and co-culture. […] Cell viability is reported both mono and co-culture models.
[4] = Culture type Co-Culture, Transduced with Lucferase2-P2A-EGFP lentivirus
[5] = Culture type Co-Culture, Transduced with Renilla-dsRed lentivirus
[6] = Culture type Mono-Culture, Transduced with Lucferase2-P2A-EGFP lentivirus
[7] = Culture type Mono-Culture, Transduced with Renilla-dsRed lentivirus

Row | SMILES | Cell Viability [1, 4] | Cell Viability [1, 5] | Cell Viability [1, 6] | Cell Viability [1, 7] | Cell Viability [2, 4] | Cell Viability [2, 5] | Cell Viability [2, 6] | Cell Viability [2, 7] | Cell Viability [3, 4] | Cell Viability [3, 5] | Cell Viability [3, 6] | Cell Viability [3, 7]
1 | CCN1CCN(c2ccc(Nc3cc(N(C)C(=O)Nc4c(Cl)c(OC)cc(OC)c4Cl)ncn3)cc2)CC1 [INFIGRATINIB] | 13.9667% | 230.084% | 45.8266% | 126.071% | 101.104% | 52.242% | 73.2403% | 44.318% | 0.6967% | 125.024% | 12.6822% | 113.181%
2 | Cc1c(Oc2ccc(F)cc2)c(OC(C)C)nn1-c1ccc(C2CC2)cn1 [IPP/CNRS-A019] | 97.1985% | 110.863% | 115.046% | 92.4816% | 91.1919% | 118.396% | 98.5803% | 101.782% | 92.46% | 90.9232% | 83.1676% | 103.472%
3 | COCCc1ccc(-c2c(C)nc3c(N4CCOCC4)ccnn23)cn1 [JNJ-42396302] | 101.077% | 99.3561% | 103.596% | 90.5469% | 126.017% | 102.271% | 117.378% | 103.223% | 95.3565% | 88.7666% | 124.422% | 103.43%
4 | COc1nc2ccc([C@@](O)(c3ccccc3)C3CCN(C(C)=O)CC3)cc2c(Cl)c1Cc1ccc(-n2cccn2)cc1 [JNJ-54119936] | 91.6435% | 104.692% | 80.3234% | 104.355% | 65.101% | 118.395% | 94.7218% | 120.218% | 98.9754% | 75.6952% | 103.766% | 113.997%
5 | CC(=O)Nc1ncc(CN2CCC[C@H](Cc3cc(C)nc(C)c3)C2)s1 [JNJ-65355394] | 87.2976% | 97.4656% | 96.7484% | 85.3088% | 88.5022% | 103.797% | 76.2761% | 119.778% | 144.109% | 117.923% | 95.1702% | 105.247%
6 | CC(=O)Nc1nc(CN2CCC[C@H](Cc3cc(C)nc(C)c3)C2)cs1 [JNJ-73924149] | 81.3438% | 100.385% | 108.387% | 92.0646% | 90.3874% | 105.251% | 100.726% | 118.221% | 110.779% | 72.9092% | 164.947% | 124.842%
7 | N#CN1CC[C@@H](C(=O)Nc2nc3c(s2)CN(C(=O)CN=[N+]=[N-])CC3)C1 [JYQ88] | 85.6014% | 100.681% | 114.259% | 88.3695% | 63.8809% | 84.2967% | 72.0417% | 77.9243% | 72.1963% | 58.5555% | 71.7367% | 79.6546%
8 | CNC(=N)NCCC[C@H](NC(=O)[C@H](CC(C)C)NC(=O)NNC(=O)[C@H](Cc1ccccc1)NC(=O)[C@H](CO)NC(=O)[C@H](CC(N)=O)NC(=O)[C@@H](Cc1ccncc1)NC(=O)[C@H](N)Cc1ccc(O)cc1)C(=O)N[C@@H](Cc1ccccc1)C(N)=O [KISS1-305] (H-[dY][d4Pal]NSF[azaGly]L[Arg(Me)]F-NH2) | 143.349% | 104.877% | 85.2761% | 111.321% | 118.72% | 125.679% | 103.004% | 99.3377% | 104.031% | 118.904% | 114.891% | 119.718%
9 | CNC(=N)NCCC[C@H](NC(=O)[C@H](CC(C)C)NC(=O)NNC(=O)[C@H](Cc1ccccc1)NC(=O)[C@H](CO)NC(=O)[C@H](CC(N)=O)NC(=O)[C@@H](Cc1cccnc1)NC(=O)[C@H](N)Cc1ccc(O)cc1)C(=O)NCC(N)=O [KISS1-543] (H-[dY][d3Pal]NSF[azaGly]L[Arg(Me)]G-NH2) | 118.116% | 72.7172% | 93.1075% | 78.975% | 101.104% | 120.489% | 73.3632% | 97.5472% | 103.647% | 101.302% | 85.2773% | 99.9886%
10 | C[C@]1(O)C[C@@H](c2nc(-c3ccc4ccc(-c5ccccc5)nc4c3)c3c(N)nccn32)C1 [LINSITINIB] | 41.9562% | 109.271% | 38.702% | 83.4141% | 60.4709% | 65.9185% | 18.406% | 73.2347% | 53.0716% | 100.619% | 21.1574% | 74.7669%
